Source: patent publication US20060210491A1, “Flavoured mouth wash composition” (priority 2003, published 2006)
Values after ≈ are worked out from the molar mass of the structure shown. Like-named read-outs stand apart in the source and are kept apart here.

Key:
[1] = test system: protease activity (arg-gingipain) of Porphyromonas gingivalis; test: Protease enzyme assay (BAPNA substrate), synergy of flavour material with antimicrobial agent; type: biochemical, Porphyromonas gingivalis W50; settings: compared with flavour material alone; for Classes of Synergy, increase in inhibition; Antimicrobial Agent Triclosan: flavour material 2500 ppm and 5000 ppm plus sub-MIC triclosan; for Classes of Synergy, increase in inhibition; Antimicrobial Agent Zinc Sulphate: flavour material 2500 ppm and 5000 ppm plus sub-MIC zinc sulphate
Experimental: The following assay was used to investigate the inhibition of protease activity (arg-gingipain) of the micro-organism Porphyromonas gingivalis (implicated in gum disease) by a flavour material or mixture of flavour materials.
Fresh buffer was prepared immediately before beginning the assay in the following manner: 3.029 g of Tris Base (Sigma, Poole, UK), 394 mg of L-cysteine hydrochloride (Sigma, Poole, UK) and 367.5 mg of calcium chloride dihydrate (Sigma, Poole, UK) were dissolved in 150 ml deionised water. In order to allow for pH differences resulting from any variation in ambient temperature, the temperature of the buffer was taken. The pH of TRIS buffers varies with temperature i.e. Δ pH=−0.031/° C. This assay should be carried out at a temperature of 30° C., with the buffer having a pH of 8.0. Thus, if the measured temperature of the buffer is, for example, 22° C. (room temperature) the pH should be adjusted to 8.24 with 2M hydrochloric acid, in order to give the desired conditions i.e. pH=8.0 at 30° C. After adjusting the pH, the buffer was made up to 200 ml with deionised water and incubated in a water bath at 30° C. for approximately one hour to reach temperature equilibrium before commencing the assay.
The enzyme substrate BAPNA (DL-α-benzoyl-DL-arginyl-p-nitro-anilide) (Sigma) is the synthetic substrate for the protease enzyme produced by the bacterium Porphyromonas gingivalis. The substrate is degraded by enzymes which show specificity for cleaving adjacent to arginine residues. This cleavage yields a yellow nitro-aniline product, which can be readily detected spectrophotometrically at 405 nm. 10.87 mg of the BAPNA substrate was added to 0.5 ml of dimethylsulphoxide (DMSO) and thoroughly dissolved. 9.5 ml of deionised water was then added. The resulting solution was then mixed by vortex and incubated at 30° C. in a water bath for about one hour before commencing the assay to allow temperature equilibration.
Porphyromonas gingivalis W50 ATCC 53978 (American Type Culture Collection (ATCC), P.O. Box 1549, Manassas, Va. 20108, USA) (may also be obtained from Prof. Philip Marsh, Centre for Applied Microbiology and Research, Salisbury, Wiltshire, SP4 OJG, UK) was sub-cultured from frozen stock cultures onto Schaedler Anaerobic Agar (Oxoid, Basingstoke, UK), and supplemented with 5% v/v horse blood (E&O Laboratories, Bonnybridge, Scotland, FK4 2HH). The plates were incubated at 37° C. in an anaerobic cabinet (Don Whitley Scientific, Shipley, UK) for 3-5 days. Single colonies grown on these plates were then inoculated into 250 ml Schaedler Anaerobic Broth (SAB) contained in bottles with cotton wool stoppers. The broths were then incubated in an anaerobic cabinet and allowed to grow for 3-5 days. This generally yielded a culture with an absorbance at 540 nm (A540) between 0.2 and 0.4.
Into 1.5 ml disposable plastic cuvettes was added 0.7 ml of assay buffer, followed by 0.2 ml of BAPNA solution and 0.1 ml of bacterial culture. The cuvettes were capped and mixed, then placed in a Pye Unicam 8620 Spectrophotometer (Pye Unicam, Cambridge, UK). The increase in absorbance at 405 nm […] was recorded over a period of 3 minutes.
The percentage inhibition of protease by a given flavour/flavour material was determined by the formula: [formula]
The synergy between flavour/flavour material and an antimicrobial agent against the protease activity of Porphyromonas gingivalis was then determined in the following manner. Firstly, the MIC value of the antimicrobial agent required to cause any inhibition of protease activity was determined using the method generally described in Example 1 for the determination of the MIC value of triclosan. […] The dilution immediately lower than the MIC value was selected as the sub-IC concentration of antimicrobial agent. All flavour materials were tested at 2500 ppm and 5000 ppm.
The percentage inhibition of protease by the flavour material and antimicrobial agent was determined as described above.

Streptococcus mutans R9 = test: Minimum inhibitory concentration (MIC), microtitre broth dilution; type: cell-based
Experimental: The minimum inhibitory concentration of an antimicrobial agent (triclosan), and a flavour material or mixture of flavour materials (flavour), was determined by the following method.
A culture of the test strain Streptococcus mutans R9, deposited under the Budapest Treaty with National Collections of Industrial, Food and Marine Bacteria Limited, 23 St Machar Drive, Aberdeen, AB24 3RY, Scotland, UK on 22nd Jan. 2004 and given accession number NCIMB 41209) (may also be obtained from Prof. Philip Marsh, Centre for Applied Microbiology and Research, Salisbury, Wiltshire, SP4 OJG, UK) was grown in 250 ml of PM broth (containing: peptone, 2% w/v; tryptone, 1% w/v; yeast extract, 1% w/v; KCl, 0.25% w/v; of approximately pH 7), anaerobically at 37° C. for 48 hours. The absorbance of the culture at 540 nm (A540) was measured and adjusted if necessary to between 0.2-0.3 by diluting with fresh (i.e. sterile) PM broth. The culture was then diluted in Schaedler Anaerobic Broth (SAB) (Oxoid, Basingstoke, UK) in a ratio of 1 part culture to 25 parts broth to give a stock inoculum culture.
Determination of the MIC of Triclosan Against S. mutans
Triclosan powder was dissolved in AR-grade ethanol, to a concentration of 32,000 ppm (3.2% w/v). This was diluted in Schaedler Anaerobic Broth (SAB) to yield two stock triclosan solutions of concentrations: 320 ppm (0.032% w/v) and 64 ppm (0.0064% w/v).
200 μl of the 320 ppm triclosan stock solution was then added to the first and seventh well of row A on a standard 96-well microtitre plate. All remaining wells in this row were filled with 100% of sterile SAB. The contents of well 1 and the contents of well 7 were independently mixed by repeatedly sucking the contents up and down a pipette tip. 100 μl from well 1 was transferred to the second well of row A and 100 μl from well 7 was transferred to the eighth well of row A. This process was repeated along the row until the sixth and twelfth wells contained 200 μl. After mixing, 100 μl from wells 6 and 12 was discarded to waste. Each successive well in row A therefore contained a two-fold dilution of triclosan compared with the preceding well (i.e. 80 ppm in wells 2 and 8; 40 ppm in wells 3 and 9, etc.), resulting in wells 6 and 12 having a concentration of 5 ppm. A similar series of dilutions was repeated starting with the 64 ppm triclosan stock solution into row B on a microtitre plate. This gave a range of triclosan concentrations from 32 ppm to 1 ppm following the dilution process described. Finally, 100 μl of the pre-diluted stock inoculum culture was added to all wells, thus giving a final volume of 200 μl in each well. Wells 1 and 7 of row A therefore contained a final concentration of 160 ppm triclosan.
A blank plate was prepared for each of the two samples by repeating the process described above, except that 100 μl of SAB was added instead of bacterial culture. This plate was used as the control plate against which the test plate(s) could be read.
Test and control plates were sealed using autoclave tape and incubated for 48 hours anaerobically at 37° C.
A microtitre plate reader (Model MRX, Dynatech Laboratories) was preset to gently agitate the plates and mix the contents. The absorbance at 540 nm “A540” was used as a measure of turbidity resulting from bacterial growth. The control, un-inoculated plate for each set of samples was read first, and the plate reader then programmed to use the control readings to blank all other plate readings for the inoculated plates for the same set of test materials (i.e. removing turbidity and possible colour changes during incubation which are due to chemical interactions). Thus, the corrected readings generated were absorbances resulting from turbidity from bacterial growth. The MIC was taken as the lowest concentration of triclosan required to inhibit growth so that the change in absorbance during the incubation period was <0.2 A540. […]

S. mutans = test: Potential synergy of triclosan with flavour materials (growth at sub-MIC concentrations); type: cell-based, Streptococcus mutans; settings: for Synergy Shown: flavour material with triclosan against S. mutans; for 50% MIC without triclosan: growth of S. mutans with flavour material at 50% of its MIC alone; for 50% MIC and 8 ppm triclosan: growth of S. mutans with flavour material at 50% of its MIC plus 8 ppm triclosan
Experimental: This example describes a method for determining the potential synergy of triclosan with flavour materials against S. mutans.
A microtitre method using the procedure described below was employed.
Flavour materials were assessed at a final concentration of 50% of the MIC value determined according to Example 1 above, in combination with triclosan at 8 ppm, i.e. about 50% of the MIC value also determined as described in Example 1. Inhibition of growth by this combination of sub-MIC concentrations of flavour material and triclosan was taken to indicate antimicrobial synergy between the flavour material and triclosan.
100 μl of stock solution was added to the appropriate well of a standard 96-well microtitre plate. An equivalent volume of bacterial stock inoculum solution (prepared as in Example 1) was added giving the desired dilution in each well. A blank plate was prepared using the same process except that 100 μl of SAB was added instead of bacterial culture. The protocol for incubation, reading of results and interpretation was as described in Example 1.

[2] = flavour material against S. mutans R9, 48 hours anaerobically at 37° C., read-out: MIC (ppm)

In the case of `CCCCCCCCCO` [Alcohol C9, nonanol], the “Classes of Synergy, increase in inhibition; Antimicrobial Agent Triclosan” value [1] is reported as “− (− = <15% increase in inhibition)”, the “Classes of Synergy, increase in inhibition; Antimicrobial Agent Zinc Sulphate” value [1] is reported as “+ (+ = >15% increase in inhibition)” and the MIC (Streptococcus mutans R9; [2]) is reported as 5000 µg/mL (≈ 34.7 mM). For the same compound, the “Synergy Shown” value (S. mutans) was “Yes”, the “50% MIC without triclosan” value (S. mutans) was “+” and the “50% MIC and 8 ppm triclosan” value (S. mutans) was “−”.
With `CCCCCCCCCCO` [Alcohol C10, decanol] the “Classes of Synergy, increase in inhibition; Antimicrobial Agent Triclosan” value [1] was “+ (+ = >15% increase in inhibition)”, the “Classes of Synergy, increase in inhibition; Antimicrobial Agent Zinc Sulphate” value [1] was “+ (+ = >15% increase in inhibition)” and the MIC (Streptococcus mutans R9; [2]) was 5000 µg/mL (≈ 31.6 mM). For the same compound, the “Synergy Shown” value (S. mutans) was “Yes”, the “50% MIC without triclosan” value (S. mutans) was “+” and the “50% MIC and 8 ppm triclosan” value (S. mutans) was “−”.
In the case of `CCCCCCCCC=O` [Aldehyde C9, nonanal], the MIC (Streptococcus mutans R9; [2]) is reported as 5000 µg/mL (≈ 35.2 mM), the “Synergy Shown” value (S. mutans) is reported as “Yes” and the “50% MIC without triclosan” value (S. mutans) is reported as “+”. For the same compound, the “50% MIC and 8 ppm triclosan” value (S. mutans) was “−”.
For `CCCCCCCCCC=O` [Aldehyde C10, decanal], the MIC (Streptococcus mutans R9; [2]) was 5000 µg/mL (≈ 32 mM), the “Synergy Shown” value (S. mutans) was “Yes” and the “50% MIC without triclosan” value (S. mutans) was “+”. For the same compound, the “50% MIC and 8 ppm triclosan” value (S. mutans) was “−”.
`C/C=C/c1ccc(OC)cc1` [Anethole Synthetic, anethole synthetic] was tested, and the “Classes of Synergy, increase in inhibition; Antimicrobial Agent Triclosan” value [1] was “− (− = <15% increase in inhibition)” and the “Classes of Synergy, increase in inhibition; Antimicrobial Agent Zinc Sulphate” value [1] was “− (− = <15% increase in inhibition)”.
For `CCCC(=O)OCc1ccccc1` [Benzyl Butyrate, benzyl butyrate], the “Classes of Synergy, increase in inhibition; Antimicrobial Agent Triclosan” value [1] was “− (− = <15% increase in inhibition)”.
In the case of `O=C(OCc1ccccc1)c1ccccc1` [Benzyl benzoate, benzyl benzoate], the “Classes of Synergy, increase in inhibition; Antimicrobial Agent Triclosan” value [1] is reported as “+ (+ = >15% increase in inhibition)” and the “Classes of Synergy, increase in inhibition; Antimicrobial Agent Zinc Sulphate” value [1] is reported as “− (− = <15% increase in inhibition)”.
With `O=C/C=C/c1ccccc1` [Cinnamic Aldehyde Extra, cinnamic aldehyde] the MIC (Streptococcus mutans R9; R9, 48 h) was 625 µg/mL (≈ 4.73 mM), the “Synergy Shown” value (S. mutans) was “Yes” and the “50% MIC without triclosan” value (S. mutans) was “+”. The “50% MIC and 8 ppm triclosan” value (S. mutans) was “−”.
`CC/C=C\CCO` [Cis-3-hexenol, cis-3-hexenol] was tested, and the “Classes of Synergy, increase in inhibition; Antimicrobial Agent Triclosan” value [1] was “− (− = <15% increase in inhibition)” and the “Classes of Synergy, increase in inhibition; Antimicrobial Agent Zinc Sulphate” value [1] was “+ (+ = >15% increase in inhibition)”.
In the case of `COC(=O)C=Cc1ccccc1` [Methyl Cinnamate, methyl cinnamate], the “Classes of Synergy, increase in inhibition; Antimicrobial Agent Triclosan” value [1] is reported as “+ (+ = >15% increase in inhibition)” and the “Classes of Synergy, increase in inhibition; Antimicrobial Agent Zinc Sulphate” value [1] is reported as “− (− = <15% increase in inhibition)”.
Work on `Oc1cc(Cl)ccc1Oc1ccc(Cl)cc1Cl` [triclosan, 2′,4,4′-trichloro-2-hydroxy-diphenyl ether, reference compound] yielded an MIC (Streptococcus mutans R9; R9, 48 h, read-out: MIC for triclosan against S. mutans R9) of 10 to 16 µg/mL (≈ 0.0345 to 0.0553 mM).
